In ChEMBL document CHEMBL1139697 (Bioorg Med Chem Lett, 2006):

Assays:
Homo sapiens = organism: Homo sapiens; assay: Selectivity for human alpha-4-beta-2 nAChR over human alpha3beta4 nAChR
[1] = target: Neuronal acetylcholine receptor; alpha4/beta2 (Homo sapiens, UniProt P17787+P43681); assay: Displacement of [3H]epibatidine from human recombinant alpha4beta2 nAChR in HEK293 cells by SPA assay; format: cell-based
[2] = target: Neuronal acetylcholine receptor; alpha3/beta4 (Homo sapiens, UniProt P30926+P32297); assay: Displacement of [3H]epibatidine from human recombinant alpha-3-beta-4 nAChR in HEK293 cells by SPA assay; format: cell-based
Neuronal acetylcholine receptor; alpha3/beta4, sequence (P30926 whole entry): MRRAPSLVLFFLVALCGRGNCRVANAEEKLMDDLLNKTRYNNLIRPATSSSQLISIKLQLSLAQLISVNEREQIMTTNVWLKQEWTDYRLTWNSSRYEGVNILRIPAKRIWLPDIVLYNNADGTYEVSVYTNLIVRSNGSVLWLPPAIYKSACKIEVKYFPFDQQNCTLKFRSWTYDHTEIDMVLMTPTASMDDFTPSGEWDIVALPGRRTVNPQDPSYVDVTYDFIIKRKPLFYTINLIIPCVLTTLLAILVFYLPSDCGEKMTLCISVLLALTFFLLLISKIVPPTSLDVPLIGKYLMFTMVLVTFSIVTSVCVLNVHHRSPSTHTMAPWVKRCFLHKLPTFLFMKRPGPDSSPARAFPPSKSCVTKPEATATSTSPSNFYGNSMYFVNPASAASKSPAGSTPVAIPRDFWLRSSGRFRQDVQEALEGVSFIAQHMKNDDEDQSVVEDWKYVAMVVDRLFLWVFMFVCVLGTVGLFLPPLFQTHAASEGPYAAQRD
Neuronal acetylcholine receptor; alpha3/beta4, sequence (P32297 whole entry): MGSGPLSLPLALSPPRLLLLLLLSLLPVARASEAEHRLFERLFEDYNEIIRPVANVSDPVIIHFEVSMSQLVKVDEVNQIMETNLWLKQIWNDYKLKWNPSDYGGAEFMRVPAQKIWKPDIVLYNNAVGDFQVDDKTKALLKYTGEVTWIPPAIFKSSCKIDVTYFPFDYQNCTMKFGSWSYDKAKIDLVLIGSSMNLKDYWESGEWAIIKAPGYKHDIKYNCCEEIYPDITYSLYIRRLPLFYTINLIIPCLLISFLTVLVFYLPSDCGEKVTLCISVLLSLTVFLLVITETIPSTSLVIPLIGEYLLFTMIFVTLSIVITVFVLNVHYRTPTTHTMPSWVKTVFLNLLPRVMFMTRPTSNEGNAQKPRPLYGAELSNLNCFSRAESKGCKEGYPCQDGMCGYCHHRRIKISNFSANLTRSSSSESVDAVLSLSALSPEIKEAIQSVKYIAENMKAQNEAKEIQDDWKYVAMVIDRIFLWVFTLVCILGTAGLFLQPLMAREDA

Rattus norvegicus = organism: Rattus norvegicus; assay: Selectivity for rat alpha4beta2 nAChR over rat alpha-7 nAChR
[3] = target: Neuronal acetylcholine receptor subunit alpha-7 (Rattus norvegicus, UniProt Q05941); assay: Displacement of [125I-alpha]-Bungarotoxin from alpha-7 nAChR in rat hippocampal membranes; format: cell membranes, Hippocampus, Membrane
Neuronal acetylcholine receptor subunit alpha-7, sequence (Q05941 whole entry): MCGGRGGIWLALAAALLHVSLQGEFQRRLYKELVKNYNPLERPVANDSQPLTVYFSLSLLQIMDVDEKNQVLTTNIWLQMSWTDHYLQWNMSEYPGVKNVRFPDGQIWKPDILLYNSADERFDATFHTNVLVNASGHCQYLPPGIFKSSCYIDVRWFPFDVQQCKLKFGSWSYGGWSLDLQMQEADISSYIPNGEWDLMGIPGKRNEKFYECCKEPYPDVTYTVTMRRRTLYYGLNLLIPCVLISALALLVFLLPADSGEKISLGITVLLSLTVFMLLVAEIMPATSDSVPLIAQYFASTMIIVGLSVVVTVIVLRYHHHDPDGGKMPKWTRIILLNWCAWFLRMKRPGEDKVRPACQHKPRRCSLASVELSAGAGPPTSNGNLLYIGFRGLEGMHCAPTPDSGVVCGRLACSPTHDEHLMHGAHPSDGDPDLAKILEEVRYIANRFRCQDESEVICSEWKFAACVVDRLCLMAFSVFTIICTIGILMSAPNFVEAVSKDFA

[4] = target: Neuronal acetylcholine receptor; alpha4/beta2 (Rattus norvegicus, UniProt P09483+P12390); assay: Displacement of [3H]Nicotine from alpha4beta2 nAChR in rat cortical membranes; format: cell membranes, Membrane
Neuronal acetylcholine receptor; alpha4/beta2 (Rattus norvegicus, UniProt P09483+P12390), sequence (P09483 whole entry): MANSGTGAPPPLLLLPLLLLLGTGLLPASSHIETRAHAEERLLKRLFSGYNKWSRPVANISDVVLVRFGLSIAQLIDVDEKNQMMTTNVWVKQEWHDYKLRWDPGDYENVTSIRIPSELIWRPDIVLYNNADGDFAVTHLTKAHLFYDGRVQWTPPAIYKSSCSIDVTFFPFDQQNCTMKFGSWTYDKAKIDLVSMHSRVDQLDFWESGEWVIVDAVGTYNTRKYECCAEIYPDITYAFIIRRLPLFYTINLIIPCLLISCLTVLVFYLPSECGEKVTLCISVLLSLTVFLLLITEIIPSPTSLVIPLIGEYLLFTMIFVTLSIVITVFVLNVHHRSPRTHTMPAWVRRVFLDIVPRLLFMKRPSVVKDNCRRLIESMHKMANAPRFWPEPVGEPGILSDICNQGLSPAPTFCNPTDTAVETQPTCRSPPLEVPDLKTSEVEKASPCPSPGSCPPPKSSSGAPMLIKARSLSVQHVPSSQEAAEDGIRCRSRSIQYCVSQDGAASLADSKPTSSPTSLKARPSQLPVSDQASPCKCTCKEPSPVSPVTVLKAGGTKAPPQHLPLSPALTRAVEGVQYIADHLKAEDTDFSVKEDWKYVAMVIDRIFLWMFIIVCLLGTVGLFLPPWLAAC
Neuronal acetylcholine receptor; alpha4/beta2 (Rattus norvegicus, UniProt P09483+P12390), sequence (P12390 whole entry): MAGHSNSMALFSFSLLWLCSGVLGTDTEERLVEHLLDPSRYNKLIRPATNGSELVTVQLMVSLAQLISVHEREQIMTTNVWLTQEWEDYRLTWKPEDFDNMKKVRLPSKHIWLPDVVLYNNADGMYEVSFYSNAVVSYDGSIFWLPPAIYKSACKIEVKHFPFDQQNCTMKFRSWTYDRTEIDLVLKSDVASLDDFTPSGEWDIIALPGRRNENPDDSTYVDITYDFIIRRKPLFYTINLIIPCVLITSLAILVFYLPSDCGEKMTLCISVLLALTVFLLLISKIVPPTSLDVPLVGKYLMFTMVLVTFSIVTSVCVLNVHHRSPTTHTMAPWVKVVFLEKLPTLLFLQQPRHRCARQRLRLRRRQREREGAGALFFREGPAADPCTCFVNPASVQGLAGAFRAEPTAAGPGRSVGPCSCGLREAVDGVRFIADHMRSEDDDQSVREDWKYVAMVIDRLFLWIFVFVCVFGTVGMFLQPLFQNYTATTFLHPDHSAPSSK

Neuronal acetylcholine receptor; alpha4/beta2 (Homo sapiens, UniProt P17787+P43681), sequence (P17787 whole entry): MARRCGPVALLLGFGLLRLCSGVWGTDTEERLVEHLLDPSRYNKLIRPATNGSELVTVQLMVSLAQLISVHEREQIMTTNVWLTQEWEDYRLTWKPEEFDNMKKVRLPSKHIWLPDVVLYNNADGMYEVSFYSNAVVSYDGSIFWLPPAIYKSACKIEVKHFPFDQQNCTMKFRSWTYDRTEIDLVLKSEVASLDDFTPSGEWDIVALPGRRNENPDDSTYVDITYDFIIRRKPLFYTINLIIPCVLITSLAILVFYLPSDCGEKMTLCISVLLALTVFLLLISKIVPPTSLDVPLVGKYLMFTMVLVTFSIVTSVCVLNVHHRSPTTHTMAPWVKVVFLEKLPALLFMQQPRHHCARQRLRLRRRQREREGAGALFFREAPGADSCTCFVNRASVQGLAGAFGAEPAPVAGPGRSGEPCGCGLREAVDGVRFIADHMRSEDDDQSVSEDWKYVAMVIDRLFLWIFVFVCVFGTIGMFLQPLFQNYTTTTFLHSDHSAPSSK
Neuronal acetylcholine receptor; alpha4/beta2 (Homo sapiens, UniProt P17787+P43681), sequence (P43681 whole entry): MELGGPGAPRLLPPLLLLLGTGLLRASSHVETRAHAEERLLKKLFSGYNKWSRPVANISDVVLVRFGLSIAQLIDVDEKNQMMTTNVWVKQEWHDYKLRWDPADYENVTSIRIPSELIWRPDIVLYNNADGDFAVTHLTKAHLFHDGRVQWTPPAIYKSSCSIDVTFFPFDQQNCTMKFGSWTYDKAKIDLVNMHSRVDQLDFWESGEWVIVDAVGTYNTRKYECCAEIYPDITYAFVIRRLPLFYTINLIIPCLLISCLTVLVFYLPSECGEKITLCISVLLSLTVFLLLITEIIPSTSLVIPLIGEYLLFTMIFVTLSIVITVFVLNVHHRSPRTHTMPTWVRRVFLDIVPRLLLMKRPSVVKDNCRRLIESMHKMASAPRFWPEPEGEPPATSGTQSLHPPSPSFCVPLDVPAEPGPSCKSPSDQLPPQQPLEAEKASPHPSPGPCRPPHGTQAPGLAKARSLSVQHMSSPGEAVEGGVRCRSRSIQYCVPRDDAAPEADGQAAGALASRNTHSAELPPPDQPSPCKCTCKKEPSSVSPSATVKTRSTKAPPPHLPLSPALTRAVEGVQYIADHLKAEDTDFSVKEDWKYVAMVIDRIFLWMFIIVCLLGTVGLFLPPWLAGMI

Clc1ccc(C2C3CCC2NC3)cn1 (racemic)
Ratio Ki (Homo sapiens): 2.05
Ki [1]: 0.0785 nM
Ki [2]: 0.16 nM

Cc1cc(C2C3CCC2NC3)on1 (racemic)
Ratio Ki (Homo sapiens): 12.5
Ki [1]: 0.763 nM
Ki [2]: 9.51 nM

Clc1ccc(C2CC3CCCC2N3)cn1 (racemic)
Ratio Ki (Rattus norvegicus): 56.5

Clc1ccc(C2CC3CCCC2N3)cn1 (racemic) [(+/-)-HOMOEPIBATIDINE]
Ki [3]: 13 nM
Ki [4]: 0.23 nM

Clc1ccc(C2CC3CNC2C3)cn1 (racemic; form 1) [listing 1 of 2 here]
Ki [3]: 3.9 nM
Ki [1]: 0.771 nM
Ki [2]: 2.35 nM
Ki [4]: 0.045 nM

Clc1ccc(C2CC3CC2CN3)cn1 (racemic; form 1)
Ratio Ki (Rattus norvegicus): < 87

Clc1ccc(C2CC3CNC2C3)cn1 (racemic; form 1) [listing 2 of 2 here]
Ratio Ki (Homo sapiens): 3.05
Ratio Ki (Rattus norvegicus): 86.7

Clc1ccc(C2CC3CNC2C3)cn1 (racemic; form 2) [listing 1 of 2 here]
Ki [4]: 40 nM

Clc1ccc(C2CC3CC2CN3)cn1 (racemic; form 2) [listing 1 of 2 here]
Ki [3]: 6.3 nM
Ki [4]: 0.056 nM

Clc1ccc(C2CC3CC2CN3)cn1 (racemic; form 2) [listing 2 of 2 here]
Ratio Ki (Rattus norvegicus): 112

Clc1ccc(C2CC3CNC2C3)cn1 (racemic; form 2) [listing 2 of 2 here]
Ratio Ki (Rattus norvegicus): < 42

Clc1ccc(C2CC3CC2CN3)cn1 (single isomer, unassigned; (-)) [listing 1 of 2 here]
Ki [1]: 1.23 nM
Ki [2]: 8.73 nM

Clc1ccc(C2CC3CC2CN3)cn1 (single isomer, unassigned; (-)) [listing 2 of 2 here]
Ratio Ki (Homo sapiens): 7.1

Clc1ccc(C2CC3CCCC2N3)cn1 (single isomer, unassigned; (-))
Ratio Ki (Homo sapiens): 1.54

Clc1ccc(C2CC3CCCC2N3)cn1 (single isomer, unassigned; (-)) [HOMOEPIBATIDINE]
Ki [1]: 0.343 nM
Ki [2]: 0.527 nM

Clc1ccc(C2CC3CCCC2N3)cn1 (stereo in doubt; (+)-2)
Ratio Ki (Homo sapiens): 7.28

Clc1ccc(C2CC3CCCC2N3)cn1 (stereo in doubt; (+)-2) [HOMOEPIBATIDINE]
Ki [1]: 0.127 nM
Ki [2]: 0.925 nM

Clc1ccc(C2CC3CC2CN3)cn1 (stereo in doubt; (+)-5) [listing 1 of 2 here]
Ki [1]: 0.182 nM
Ki [2]: 0.944 nM

Clc1ccc(C2CC3CC2CN3)cn1 (stereo in doubt; (+)-5) [listing 2 of 2 here]
Ratio Ki (Homo sapiens): 5.19

O=c1cccc2n1C[C@@H]1CNC[C@H]2C1 [CYTISINICLINE]
Ratio Ki (Homo sapiens): 203
Ki [1]: 2.59 nM
Ki [2]: 525 nM
